Test results taken from US12180187B2, “1-phenyl-5-azinylpyrazolyl-3-oxyalkyl acids and their use for controlling unwanted plant growth” (BAYER AKTIENGESELLSCHAFT, priority 2019, dated 2024).

Tests used:
KCHSC [1] = experiment: Pre-emergence action against KCHSC, 1280 g/ha; assay type: in vivo, Bassia scoparia; conditions: scored visually after about 3 weeks vs untreated controls (100% = plants have died)
Method in brief: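 Visual percent-effect ratings (0% = like control, 100% = plants dead) were taken about 3 weeks after pre-emergence soil-surface application of WP/EC aqueous formulations with 0.5% additive, 600 L water/ha. Seeds were sown in sandy loam and grown in the greenhouse.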

ABUTH = experiment: Pre-emergence action at 320 g/ha against ABUTH; assay type: in vivo, Abutilon theophrasti; conditions: greenhouse, scored visually after about 3 weeks vs untreated controls, 100% = plants have died, 0% = like control plants
Method in brief: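 Visual % scoring at about 3 weeks post-treatment against untreated pots (0% = like control, 100% = dead), greenhouse-grown. Compounds applied at 320 g/ha as aqueous WP/EC suspension or emulsion plus 0.5% additive, 600 l/ha water, onto covering soil of freshly sown pots before emergence.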

HORMU = experiment: Pre-emergence action at 320 g/ha against HORMU; assay type: in vivo, Hordeum murinum; conditions: greenhouse, scored visually after about 3 weeks vs untreated controls, 100% = plants have died, 0% = like control plants
Excerpt: b) Seeds of monocotyledonous and dicotyledonous weed plants and crop plants are placed in plastic or organic planting pots and covered with soil. The compounds of the invention, formulated in the form of wettable powders (WP) or as emulsion concentrates (EC), are then applied onto the surface of the covering soil as aqueous suspension or emulsion with addition of 0.5% additive at a water application rate of 600 l/ha (converted). After the treatment, the pots are placed in a greenhouse and kept under good growth conditions for the trial plants. After about 3 weeks, the effect of the preparations is scored visually in comparison with untreated controls as percentages. For example, 100% activity=the plants have died, 0% activity=like control plants. Tables 13 to 26 below show the effects of selected compounds of the general formula (I) on various harmful plants and at an application rate corresponding to 320 g/ha, which were obtained by the experimental procedure mentioned above.

KCHSC [2] = experiment: Post-emergence action against KCHSC, 1.28 kg/ha; assay type: in vivo, Bassia scoparia; conditions: dosage 1280 g/ha, visual rating about 3 weeks after treatment vs untreated controls (100% = plants died)
Method in brief: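 Percent activity was scored visually ~3 wk post-spray relative to untreated plants. Treatment was post-emergence at the one-leaf stage using WP/EC in water with 0.5% additive (600 L/ha).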

Compound	Pre-emergence action against KCHSC (KCHSC [1]) [%]	Pre-emergence action at 320 g/ha against ABUTH in % (ABUTH) [%]	Pre-emergence action at 320 g/ha against HORMU in % (HORMU) [%]	Post-emergence action against KCHSC (KCHSC [2]) [%]
CN(C)S(=O)(=O)NC(=O)COc1nn(-c2ccccc2F)c(-c2ccc(F)nc2)c1Br [Example X-005]	90	–	–	–
COC(=O)COc1nn(-c2ccccc2F)c(-c2cncnc2)c1Br [VI-004, Methyl {[4-bromo-1-(2-fluorophenyl)-5-(pyrimidin-5-yl)-1H-pyrazol-3-yl]oxy}acetate]	–	80	100	–
O=C(O)COc1nn(-c2ccccc2F)c(-c2cncnc2)c1Br [VI-007, {[4-Bromo-1-(2-fluorophenyl)-5-(pyrimidin-5-yl)-1H-pyrazol-3-yl]oxy}acetic Acid]	–	–	100	–
COC(=O)[C@@H](C)Oc1nn(-c2ccccc2F)c(-c2cncnc2)c1Br [VI-011, Methyl (2R)-2-{[4-bromo-1-(2-fluorophenyl)-5-(pyrimidin-5-yl)-1H-pyrazol-3-yl]oxy}propanoate]	100	80	–	90
C[C@@H](Oc1nn(-c2ccccc2F)c(-c2cncnc2)c1Br)C(=O)O [VI-012]	100	80	–	90
COC(=O)[C@@H](C)Oc1nn(-c2ccccc2)c(-c2cncnc2)c1Br [VI-013]	100	80	–	100
COC(=O)COc1nn(-c2ccc(F)cc2)c(-c2ccc(F)nc2)c1Br [VII-002]	–	–	80	–
O=C(O)COc1nn(-c2ccccc2F)c(-c2ccc(F)nc2)c1Br [VII-003, {[4-Bromo-1-(2-fluorophenyl)-5-(6-fluoropyridin-3-yl)-1H-pyrazol-3-yl]oxy}acetic acid]	–	–	90	–
COC(=O)[C@@H](C)Oc1nn(-c2ccccc2)c(-c2cccnc2)c1Br [VII-008]	90	80	–	90
CCOC(=O)COc1nn(-c2ccccc2F)c(-c2ccc(F)nc2)c1Br [VII-012, Ethyl {[4-bromo-1-(2-fluorophenyl)-5-(6-fluoropyridin-3-yl)-1H-pyrazol-3-yl]oxy}acetate]	–	–	80	90
COC(=O)C(C)Oc1nn(-c2ccccc2)c(-c2ccc(F)nc2)c1Br (centres unmarked) [VII-014]	100	–	–	–
CCOC(=O)COc1nn(-c2ccccc2F)c(-c2cncc(F)c2)c1Br [VII-015]	–	80	–	–
CCOC(=O)COc1nn(-c2ccc(F)cc2F)c(-c2ccc(F)nc2)c1Cl [VII-016]	–	–	90	–
COC(=O)COc1nn(-c2ccccc2)c(-c2ccc(F)nc2)c1Br [VII-018]	90	–	–	90
CCOC(=O)C(C)Oc1nn(-c2ccccc2F)c(-c2ccc(F)nc2)c1Br (centres unmarked) [VII-019]	100	–	100	90
COC(=O)C(C)Oc1nn(-c2ccccc2)c(-c2ccc(F)nc2)c1Cl (centres unmarked) [VII-023, Methyl 2-{[4-chloro-5-(6-fluoropyridin-3-yl)-1-phenyl-1H-pyrazol-3-yl]oxy}propanoate]	–	–	100	–
O=C(O)COc1nn(-c2ccccc2F)c(-c2cncc(F)c2)c1Br [VII-025]	90	–	–	–
COC(=O)C(C)Oc1nn(-c2ccccc2)c(-c2ccc(F)nc2)c1Br (centres unmarked) [VII-026]	100	–	–	90
COC(=O)COc1nn(-c2ccc(F)cc2)c(-c2cccnc2)c1Br [VII-028]	–	90	–	–
CCC(Oc1nn(-c2ccccc2F)c(-c2ccc(F)nc2)c1Br)C(=O)OC (centres unmarked) [VII-029]	90	–	90	90
COC(=O)C(C)Oc1nn(-c2ccccc2)c(-c2cccnc2)c1Cl (centres unmarked) [VII-032]	–	–	80	–
COC(=O)COc1nn(-c2ccccc2F)c(-c2cncc(F)c2)c1Br [VII-035]	90	90	–	–
COC(=O)COc1nn(-c2ccccc2F)c(-c2ccc(F)nc2)c1F [VII-040]	–	–	–	90
CCOC(=O)C(C)Oc1nn(-c2ccccc2F)c(-c2ccc(F)nc2)c1I (centres unmarked) [VII-057]	100	–	–	90
COC(=O)[C@@H](C)Oc1nn(-c2cc(F)ccc2F)c(-c2ccc(F)nc2)c1Br [VII-062]	100	–	–	90
CCOC(=O)C(C)Oc1nn(-c2ccccc2F)c(-c2ccc(F)nc2)c1C(F)(F)F (centres unmarked) [VII-066]	–	–	–	90
COC(=O)[C@@H](C)Oc1nn(-c2cc(F)ccc2F)c(-c2cncc(F)c2)c1Br [VII-132]	100	90	–	100
COC(=O)[C@@H](C)Oc1nn(-c2cc(F)ccc2F)c(-c2cncc(F)c2)c1C#N [VII-147]	100	–	–	90
CCOC(=O)COc1nn(-c2ccccc2F)c(-c2ccnc(F)c2)c1Br [VIII-003, Ethyl {[4-bromo-1-(2-fluorophenyl)-5-(2-fluoropyridin-4-yl)-1H-pyrazol-3-yl]oxy}acetate]	–	–	90	–
COC(=O)[C@@H](C)Oc1nn(-c2ccccc2F)c(-c2ccnc(F)c2)c1Br [VIII-006]	100	–	–	90
